# Data taken from patent publication US10683272B2 (THE JOHNS HOPKINS UNIVERSITY, priority 2014, dated 2020).
# Columns and labels:
# [1] = baboon PET imaging and pharmacokinetics; format: in vivo, Papio anubis (baboon)
# Description: A male Papio anubis (8 y, 27.1 kg) was used to study the biodistribution of ^86Y-6. The baboon was positioned supine during image acquisition. For attenuation correction a low-dose CT image was acquired immediately before the first and last PET images. PET and CT images were co-registered across time points using a Hermes workstation (Hermes Medical Solutions, Greenville, S.C.). Fourteen source organ contours were delineated on the CT with the aid of fused PET/CT images. Decay-corrected mean activity concentrations (Bq/g) were extracted for each source organ from the PET images. Contours were drawn on the PET images of the kidneys, renal cortices, and prostate. The decay-corrected total activity per organ quantified within the PET images had nearly one-to-one correspondence with the administered radioactivity for the first six time points (1 h or less), which confirmed that the administered radioactivity was fully accounted for on the PET images, after which the total amount was less than the administered amount due to voiding. The total amount of radioactivity quantified in each of the PET images was used to obtain the whole-body retention kinetics.
# Nine static PET images were acquired at 5, 10, 15, 20, 35 min, 1, 2, 3.5 and 23 h after intravenous administration of 80.7 MBq (2.2 mCi) of ^86Y-6 as a bolus. Images were acquired in 2D mode on a Discovery Rx VCT scanner (GE Healthcare).
# For each time-point, the activity concentration (in Bq/cm^3) was measured in each of the 14 delineated organs and multiplied by the organ volume to obtain the total activity per time point per organ. The measured values were then decay-corrected and divided by the baboon organ mass, determined by the CT density and volume from the drawn contours, and the injected radioactivity to obtain the fraction of initial radioactivity per gram (FIA/g) for each time point and each organ. The baboon FIA/g values were then converted to human FIA (per organ) using the following equation (Schwartz et al., 2011; Woodard et al., 1975): […]
# That approach assumes that the concentration of activity in a particular tissue relative to the overall concentration in the whole body is preserved across species (i.e., organ concentration/total body concentration is the same for baboon and man). The resulting human FIA values were plotted as a function of time (nine data points) for each organ and fit to a bi-exponential expression: FIA(t)=A1.e^−(λ1^bio^.t)+A2.e^−(Δ2^bio^.t) (2)
# [2] = test system: PSMA+ PC-3 PIP and PSMA− PC-3 flu tumors; experiment: small animal PET-CT imaging; format: in vivo, NOD/SCID mice; conditions: PET-CT
# Description: Mice (n=3 for ^86Y-4 or ^86Y-6 and n=2 for ^86Y-5) were injected via the tail vein with 3.33-6.21 MBq (90-168 μCi) of radiotracer formulated in 100 μL of saline at pH ˜7. […] At different time points, anesthetized individual mice were placed in the prone position on the scanner gantry and secured with medical tape while the anesthesia flow rate was increased to 0.8 L/min. Images were reconstructed using the FORE/2D-OSEM method (two iterations, 16 subsets) and included correction for radioactive decay, scanner dead time, and scattered radiation. Partial volume correction (PVC) was not performed. After each PET scan, a CT scan was acquired for anatomic co-registration. To facilitate PET and CT image co-registration, a special animal bed was employed which fits both the PET and CT scanners. The animals were under anesthesia and immobilized when moving between scanners as well as during both scans. The reconstructed PET and CT images were then manually co-registered through rigid transformation, by aligning natural landmarks (such as the animal limbs and the bed contour) using the AMIDE software (from sourceforge.net/amide).
# Dynamic, whole-body PET and CT images were acquired on an eXplore VISTA small-animal PET (GE Healthcare, Little Chalfont, Buckinghamshire, UK) and an X-SPECT small SPECT/CT system (Gamma Medica Ideas, Northridge, Calif.), respectively.
# [3] = bi-exponential fit, listed as [^86Y]6
# [4] = whole-body retention kinetics fit
structure (smiles),measurement,setting,value
O=C([O-])CN1CCN(CC(=O)[O-])CCN(CC(=O)[O-])C(Cc2ccc(NC(=S)NCCCCNC(=O)CCCCCCC(=O)NCCCC[C@H](NC(=O)N[C@@H](CCC(=O)O)C(=O)O)C(=O)O)cc2)CN(CC(=O)[O-])CC1.[86Y+3] (stereo partly shown) [^86Y-6],percent of kidney radioactivity cleared in the rapid phase,[1]; baboon,Sixty-eight
same,percent of renal cortex radioactivity cleared in the rapid phase,[1]; baboon,66%
same,highest uptake in kidneys,"[1]; baboon, about 25 min post-injection",8 % ID/g
same,"Brain, biological half-life of A1",[1]; bi-exponential fit,0.71 h
same,"Brain, biological half-life of A2",[1]; bi-exponential fit,8.71 h
same,"Brain, fitted parameter A1",[1]; bi-exponential fit,0.53 % ID
same,"Brain, fitted parameter A2",[1]; bi-exponential fit,0.11 % ID
same,"Heart, biological half-life of A1",[1]; bi-exponential fit,0.29 h
same,"Heart, biological half-life of A2",[1]; bi-exponential fit,6.49 h
same,"Heart, fitted parameter A1",[1]; bi-exponential fit,1.55 % ID
same,"Heart, fitted parameter A2",[1]; bi-exponential fit,0.29 % ID
same,"Kidneys, biological half-life of A1",[1]; bi-exponential fit,0.84 h
same,"Kidneys, biological half-life of A2",[1]; bi-exponential fit,16.6 h
same,"Kidneys, fitted parameter A1",[1]; bi-exponential fit,6.36 % ID
same,"Kidneys, fitted parameter A2",[1]; bi-exponential fit,2.98 % ID
same,"Large intestine, biological half-life of A1",[1]; bi-exponential fit,0.25 h
same,"Large intestine, biological half-life of A2",[1]; bi-exponential fit,5.97 h
same,"Large intestine, fitted parameter A1",[1]; bi-exponential fit,0.45 % ID
same,"Large intestine, fitted parameter A2",[1]; bi-exponential fit,0.30 % ID
same,"Liver, biological half-life of A1",[1]; bi-exponential fit,0.38 h
same,"Liver, biological half-life of A2",[1]; bi-exponential fit,7.71 h
same,"Liver, fitted parameter A1",[1]; bi-exponential fit,4.77 % ID
same,"Liver, fitted parameter A2",[1]; bi-exponential fit,1.52 % ID
same,"Lungs, biological half-life of A1",[1]; bi-exponential fit,0.42 h
same,"Lungs, biological half-life of A2",[1]; bi-exponential fit,6.29 h
same,"Lungs, fitted parameter A1",[1]; bi-exponential fit,2.78 % ID
same,"Lungs, fitted parameter A2",[1]; bi-exponential fit,1.27 % ID
same,"Muscle, biological half-life of A1",[1]; bi-exponential fit,1.98 h
same,"Muscle, biological half-life of A2",[1]; bi-exponential fit,69.31 h
same,"Muscle, fitted parameter A1",[1]; bi-exponential fit,14.98 % ID
same,"Muscle, fitted parameter A2",[1]; bi-exponential fit,0.56 % ID
same,"Pancreas, biological half-life of A1",[1]; bi-exponential fit,0.66 h
same,"Pancreas, biological half-life of A2",[1]; bi-exponential fit,10.60 h
same,"Pancreas, fitted parameter A1",[1]; bi-exponential fit,0.24 % ID
same,"Pancreas, fitted parameter A2",[1]; bi-exponential fit,0.05 % ID
same,"Prostate, biological half-life of A1",[1]; bi-exponential fit,0.67 h
same,"Prostate, biological half-life of A2",[1]; bi-exponential fit,5.58 h
same,"Prostate, fitted parameter A1",[1]; bi-exponential fit,0.02 % ID
same,"Prostate, fitted parameter A2",[1]; bi-exponential fit,0.02 % ID
same,"Renal cortex, biological half-life of A1",[1]; bi-exponential fit,1.1 h
same,"Renal cortex, biological half-life of A2",[1]; bi-exponential fit,about 19 h
same,"Renal cortex, fitted parameter A1",[1]; bi-exponential fit,4.23 % ID
same,"Renal cortex, fitted parameter A2",[1]; bi-exponential fit,2.16 % ID
same,"Salivary glands, biological half-life of A1",[1]; bi-exponential fit,1.56 h
same,"Salivary glands, biological half-life of A2",[1]; bi-exponential fit,4.47 h
same,"Salivary glands, fitted parameter A1",[1]; bi-exponential fit,0.30 % ID
same,"Salivary glands, fitted parameter A2",[1]; bi-exponential fit,0.08 % ID
same,"Small intestine, biological half-life of A1",[1]; bi-exponential fit,0.26 h
same,"Small intestine, biological half-life of A2",[1]; bi-exponential fit,10.17 h
same,"Small intestine, fitted parameter A1",[1]; bi-exponential fit,0.24 % ID
same,"Small intestine, fitted parameter A2",[1]; bi-exponential fit,0.10 % ID
same,"Spleen, biological half-life of A1",[1]; bi-exponential fit,1.49 h
same,"Spleen, biological half-life of A2",[1]; bi-exponential fit,18.74 h
same,"Spleen, fitted parameter A1",[1]; bi-exponential fit,0.12 % ID
same,"Spleen, fitted parameter A2",[1]; bi-exponential fit,0.04 % ID
same,"Stomach, biological half-life of A1",[1]; bi-exponential fit,0.46 h
same,"Stomach, biological half-life of A2",[1]; bi-exponential fit,6.14 h
same,"Stomach, fitted parameter A1",[1]; bi-exponential fit,0.15 % ID
same,"Stomach, fitted parameter A2",[1]; bi-exponential fit,0.09 % ID
same,"Kidneys, biological half-life of A2",[1]; [3],16.62 h
same,"Renal cortex, biological half-life of A2",[1]; [3],19.19 h
same,"WB retention, biological half-life of A1",[1]; [4],5.62 h
same,"WB retention, fitted parameter A1",[1]; [4],100.00 % ID
same,earliest time of clear delineation of PSMA+ PC-3 PIP tumor,[2],15 min
